Assay results reported in BindingDB's records for doi:10.1021/np8001145 (Kaohsiung Medical University, 2008).

Biological target: Xanthine dehydrogenase/oxidase (Homo sapiens, UniProt P47989)
Assay: Inhibition of xanthine oxidase

Chain of Xanthine dehydrogenase/oxidase (P47989 whole entry): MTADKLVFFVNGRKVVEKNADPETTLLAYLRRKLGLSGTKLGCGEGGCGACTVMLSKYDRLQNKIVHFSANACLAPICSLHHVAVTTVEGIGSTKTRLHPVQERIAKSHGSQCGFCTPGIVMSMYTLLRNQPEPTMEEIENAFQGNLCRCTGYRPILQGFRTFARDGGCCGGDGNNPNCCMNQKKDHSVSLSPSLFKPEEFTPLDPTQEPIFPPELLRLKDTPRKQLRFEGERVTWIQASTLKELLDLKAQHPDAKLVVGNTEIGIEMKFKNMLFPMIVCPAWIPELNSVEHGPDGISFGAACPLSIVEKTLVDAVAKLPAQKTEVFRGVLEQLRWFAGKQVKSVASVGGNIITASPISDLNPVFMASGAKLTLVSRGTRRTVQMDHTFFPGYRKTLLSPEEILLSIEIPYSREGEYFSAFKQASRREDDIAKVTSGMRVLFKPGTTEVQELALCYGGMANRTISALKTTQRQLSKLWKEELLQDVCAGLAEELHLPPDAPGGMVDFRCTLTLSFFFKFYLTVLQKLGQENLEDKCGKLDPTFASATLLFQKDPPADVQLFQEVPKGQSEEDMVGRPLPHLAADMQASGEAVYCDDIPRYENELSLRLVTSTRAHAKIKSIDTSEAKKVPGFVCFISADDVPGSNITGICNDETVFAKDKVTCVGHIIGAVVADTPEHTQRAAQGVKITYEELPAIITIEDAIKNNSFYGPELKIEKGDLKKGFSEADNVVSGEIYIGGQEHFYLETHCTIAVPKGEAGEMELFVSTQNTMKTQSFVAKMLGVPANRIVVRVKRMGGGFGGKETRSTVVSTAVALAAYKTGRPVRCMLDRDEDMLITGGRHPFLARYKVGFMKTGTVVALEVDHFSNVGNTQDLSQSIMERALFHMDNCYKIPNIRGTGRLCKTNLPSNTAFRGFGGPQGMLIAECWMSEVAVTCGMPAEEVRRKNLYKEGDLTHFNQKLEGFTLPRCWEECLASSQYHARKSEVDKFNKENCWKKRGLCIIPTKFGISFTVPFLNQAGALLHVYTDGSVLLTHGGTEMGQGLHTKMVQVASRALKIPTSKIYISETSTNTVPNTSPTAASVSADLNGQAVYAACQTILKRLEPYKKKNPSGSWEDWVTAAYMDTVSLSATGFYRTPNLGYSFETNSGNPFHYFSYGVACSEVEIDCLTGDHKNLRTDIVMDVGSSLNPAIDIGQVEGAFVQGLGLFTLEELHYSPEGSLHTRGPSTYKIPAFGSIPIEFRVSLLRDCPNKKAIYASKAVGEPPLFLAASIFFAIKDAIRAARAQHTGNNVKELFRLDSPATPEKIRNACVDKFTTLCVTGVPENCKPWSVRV

CCC(C)C(=O)C1C(=O)[C@@](C)(CC=C(C)C)C(=O)[C@@]2(C[C@H]3[C@H](CC[C@@]3(C)O)[C@](C)(O)C2)C1=O (stereo partly specified)
IC50: 42.1 µM
